Experimental data from US11737977B2, “Cerasome delivery system for targeting activated CD44 molecule, preparation method and use thereof” (Beijing Inno Medicine Co., Ltd., priority 2017, dated 2023).

Key:
[1] = tested on: arterial vulnerable plaques; test: In vivo therapeutic effect on arterial vulnerable plaques (carotid MRI, percentage of plaque progression); design: species or system ApoE−/− mice; conditions: 5 mg rosuvastatin per kg, once every other day, 5 treatments; FIG. 14
[2] = oral, clinical practice; cited from earlier work
[3] = target: T1, CD44 on the surface of endothelial cells at arterial vulnerable plaques (Mus musculus, UniProt P15379); test: Binding force integration of FL-ligand/antibody on endothelial cells (flow cytometry MFI); design: species or system mice; conditions: aminofluorescein-labeled ligand/antibody 10 mg/ml, 30 minutes, 37° C.
T1 construct: from tissue; host or cells: endothelial cells from arterial vulnerable plaques of atherosclerosis model mice
T1 sequence (P15379 23-778): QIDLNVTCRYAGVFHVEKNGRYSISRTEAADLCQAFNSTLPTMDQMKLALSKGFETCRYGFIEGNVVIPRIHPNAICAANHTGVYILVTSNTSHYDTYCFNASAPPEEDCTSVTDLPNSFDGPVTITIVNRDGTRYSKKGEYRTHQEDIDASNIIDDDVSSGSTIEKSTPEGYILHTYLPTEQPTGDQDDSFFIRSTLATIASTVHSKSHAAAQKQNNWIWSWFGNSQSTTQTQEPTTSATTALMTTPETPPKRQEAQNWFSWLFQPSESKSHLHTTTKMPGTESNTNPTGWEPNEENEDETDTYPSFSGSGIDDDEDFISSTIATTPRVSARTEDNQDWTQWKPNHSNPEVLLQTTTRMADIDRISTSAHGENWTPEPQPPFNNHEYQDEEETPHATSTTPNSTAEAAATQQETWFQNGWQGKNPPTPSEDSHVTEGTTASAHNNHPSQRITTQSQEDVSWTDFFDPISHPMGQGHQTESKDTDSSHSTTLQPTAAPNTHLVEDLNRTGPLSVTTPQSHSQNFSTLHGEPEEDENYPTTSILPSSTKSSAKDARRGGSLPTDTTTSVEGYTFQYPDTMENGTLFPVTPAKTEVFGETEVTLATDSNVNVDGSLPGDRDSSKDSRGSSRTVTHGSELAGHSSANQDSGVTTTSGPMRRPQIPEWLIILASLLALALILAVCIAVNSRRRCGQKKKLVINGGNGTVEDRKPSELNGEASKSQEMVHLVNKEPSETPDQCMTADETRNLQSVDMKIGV
Protocol: Endothelial cells at normal arterial vessel walls and endothelial cells at arterial vulnerable plaques of model mice were taken, and hyaluronic acid labeled with aminofluorescein at a concentration of 10 mg/ml (represented by “FL-HA”) was added, and the sample was cultured in Dulberic modified Eagle's medium (DMEM) (containing calf serum with a volume fraction of 10%, 100 U/ml penicillin, 100 U/ml streptomycin) at 37° C., in 5% CO2 incubator. After 30 minutes, the mean fluorescence intensity (MFI) was determined by flow cytometry (CytoFLEX, Beckman Coulter, U.S.A.), and the binding force integration of FL-HA on the surface of both cells was calculated (the binding force of endothelial cells of normal arterial vessel walls is set to 1).
Endothelial cells at normal arterial vessel walls and endothelial cells at arterial vulnerable plaques of model mice were taken, and the ligand/antibody labeled with aminofluorescein at a concentration of 10 mg/ml was added, the sample was cultured in Dulberic modified Eagle's medium (DMEM) (containing calf serum with a volume fraction of 10%, 100 U/ml penicillin, 100 U/ml streptomycin) at 37° C., in 5% CO2 incubator. After 30 minutes, the mean fluorescence intensity (MFI) was determined by flow cytometry (CytoFLEX, Beckman Coulter, U.S.A.), and the binding force integration of FL-ligand/antibody on the surface of both cells was calculated (the binding force of CD44 of endothelial cells of normal arterial vessel walls to ligand/antibody is set to 1).

[4] = target: T2, CD44 on the surface of macrophages inside arterial vulnerable plaques (Mus musculus, UniProt P15379); test: Binding force integration of FL-ligand/antibody on macrophages (flow cytometry MFI); design: species or system mice; conditions: aminofluorescein-labeled ligand/antibody 10 mg/ml, 30 minutes, 37° C.
T2 construct: from tissue; host or cells: macrophages from inside arterial vulnerable plaques of atherosclerosis model mice
T2 sequence (P15379 23-778): T1 sequence (P15379 23-778)
Protocol: Intraperitoneal macrophages and macrophages inside arterial vulnerable plaques of model mice were taken, and hyaluronic acid labeled with aminofluorescein at a concentration of 10 mg/ml (represented by “FL-HA”) was added, the sample was cultured in DMEM (containing calf serum with a volume fraction of 10%, 100 U/ml penicillin, 100 U/ml streptomycin) at 37° C., in 5% CO2 incubator.
Intraperitoneal macrophages and macrophages inside arterial vulnerable plaques of model mice were taken, and the ligand/antibody labeled with aminofluorescein at a concentration of 10 mg/ml was added, the sample was cultured in DMEM (containing calf serum with a volume fraction of 10%, 100 U/ml penicillin, 100 U/ml streptomycin) at 37° C., in 5% CO2 incubator.

[5] = tested on: arterial vulnerable plaques; test: In vivo CT tracing of arterial vulnerable plaques, iodixanol; design: species or system mice; conditions: iodixanol 0.66 mg/kg, tail vein, CT 72 hours after administration; FIG. 16
Protocol: (1) A commercially available iodixanol bulk drug was used, and the cerasome delivery system HA-CL1@I loaded with a CT tracer, the cerasome delivery system HA-CL1@I+S loaded with a tracer and a CD44 activator, and the non-targeting cerasome delivery system CL1@I loaded with a tracer (as a comparative example) were prepared by the method described in the above Example 2.
(2) A mouse model of atherosclerotic vulnerable plaque was constructed according to the method described in Example 6 above.
(3) The model mice were fed with a high-fat diet (same as in Example 6) for 16 weeks. 30 model mice were randomly divided into the blank group (6 mice), the iodixanol group (6 mice, given the commercially available iodixanol bulk drug, and the dosage of iodixanol was 0.66 mg/kg body weight), the CL1@I group (6 mice, given CL1@I, and the dosage of iodixanol was 0.66 mg/kg body weight), the HA-CL1@I group (6 mice, given HA-CL1@I, and the dosage of iodixanol was 0.66 mg/kg body weight), and HA-CL1@I+S group (6 mice, given HA-CL1@I+S, the dosage of iodixanol was 0.66 mg/kg body weight, and the dosage of CD44 activator-LPS was about 0.023 mg/kg body weight). […]

Row | binding force integration, endothelial cells at vulnerable plaques versus endothelial cells of normal arterial vessel walls (set to 1) [3] | binding force integration, macrophages inside vulnerable plaques versus macrophages outside the plaque (set to 1) [4] | Compound | therapeutic effect on arterial vulnerable plaques (percentage of plaque progression) [1] | bioavailability when administered orally [2] | tracing effect on arterial vulnerable plaques (CT) [5]
1 | 16 times | 37 times | laminin | – | – | –
2 | 21 times | 38 times | collagen | – | – | –
3 | 17 times | 33 times | osteopontin: natural ligand for CD44 | – | – | –

More lines, now with the values behind:

Row | Compound | binding force integration, endothelial cells at vulnerable plaques versus endothelial cells of normal arterial vessel walls (set to 1) [3] | binding force integration, macrophages inside vulnerable plaques versus macrophages outside the plaque (set to 1) [4] | therapeutic effect on arterial vulnerable plaques (percentage of plaque progression) [1] | bioavailability when administered orally [2] | tracing effect on arterial vulnerable plaques (CT) [5]
4 | CC(C)c1nc(N(C)S(C)(=O)=O)nc(-c2ccc(F)cc2)c1/C=C/[C@@H](O)C[C@@H](O)CC(=O)O [rosuvastatin] | – | – | shows a certain therapeutic effect, but it could not prevent the continued growth of vulnerable plaques | about 20% | –
5 | hyaluronic acid [HA, reference compound] | approximately 24 times | approximately 40 times | – | – | –
6 | CC(=O)N(CC(O)CN(C(C)=O)c1c(I)c(C(=O)NCC(O)CO)c(I)c(C(=O)NCC(O)CO)c1I)c1c(I)c(C(=O)NCC(O)CO)c(I)c(C(=O)NCC(O)CO)c1I (stereo not shown) [iodixanol] | – | – | – | – | does not show any tracing effect
7 | fibronectin | 18 times | 35 times | – | – | –
